Measured values taken from patent publication US5587463A, “Texaphyrin macrocycles and metal complexes thereof” (Board of Regents, The University of Texas System, priority 1994, dated 1996).

Columns and labels:
[1] = aqueous solution; 0.01 to 1 mM; cited from earlier work
[2] = 37° C. in water, 20 MHz; cited from earlier work
[3] = cited from earlier work
[4] = system: tumor; settings: in vivo; cited from earlier work
[5] = Hydrolysis in aqueous acid; type: physicochemical; settings: aqueous acid
Description: (§1) Attempts to demetallate complex 3A .cndot.NO3 were made. In an effort to obtain the free sp^2 bridged ligand 2A, the above complex in chloroform was stirred for several hours in the presence of sodium sulfide and independently with sodium thiosulfate. […] In the case of sodium sulfide, this critical conclusion was further supported by FAB MS: Other than the starting cationic complex 3A, no evidence was obtained for any moderate to high molecular weight volatile products in the mass spectrum. […] The rate of this process, however, is strongly pH dependent, the half-life being, for instance, on the order of several hours in the presence of ca. 0.1N HCl.

[6] = Stability to demetallation (sulfide, thiosulfate); type: physicochemical
Description: The above K1 and K2 (or K1 K2) values are predicated on the assumption that the cadmium complexes under discussion are stable with regards to demetallation and that the equilibria of equations 1 and 2 (or 3) pertain under the conditions of base binding. The first of these concerns is readily apparent: If demetallation occurs, then obviously one is not studying base binding! […] The second concern is particularly important within the context of quantitative work: If, for instance, the starting complex 3.cndot.NO3 is not rigorously five coordinate, then K1 (and perhaps K2 as well) would represent an axial ligand displacement reaction rather than a pure addition process as implied above. Control experiments indicate that the assumption of initial five coordination is reasonable: Independent titrations of 3A .cndot.NO3 with NH4 NO3 and H2 O indicate that only modest and monotonic changes in the chemical shift of the "meso" signals take place over the course of adding ≥50 equivalents of these potentially adventitious ligands.^40 This means that either "complete" binding occurs at 1:1 stoichiometry (essentially ruled out in the case of H2 O on the basis of analytical data), or that these species are poorly coordinating in CHCl3 so that five coordination pertains about cadmium; the latter interpretation appearing more likely.
as §1

[7] = Axial base binding of benzimidazole, 1H NMR spectral titration; settings: CDCl3; Scatchard plot; estimated error ≤15%; read-out: K1 (benzimidazole) (converted)
Description: For a rigorously five coordinate starting cadmium complex, such as that represented schematically by structure 3A, where neither the counter anion nor adventitious ligands serves to occupy an apical coordination site, base binding can be considered to occur in accord with equations (1) and (2) shown below. Under conditions where K1 […]K2, these processes can be considered to occur sequentially, giving first a monoligated, presumably pentagonal pyramidal six coordinate species (such as 4bA), followed by a coordinatively saturated bisligated pentagonal bipyramidal product akin to 5aA. Where, however, K2 >>K1this stepwise conceptual approach is invalid. Under these conditions, it becomes easier to analyze the base binding in terms of direct formation of the bisligated material as shown in equation (3).
L+B LB K1 =[LB]/[L][B] (1)
LB+B LB2 K2 =[LB2 ]/[LB][B] (2)
L+2B LB2 K1 K2 =[LB2 ]/[L][B]^2 (3)
The ^1 H NMR titration of 3A .cndot.NO3 with BzIm or pyr-D5 was done. Rigorously purified complex 3A .cndot.NO3 was dried at 80° C. under reduced pressure (1 mmHg) for 1 day. Starting samples for titration were then prepared by dissolving this five coordinate complex (3.32 mg, 0.005 mmol) in 0.7 to 0.75 ml of CDCl3 and transferring quantitatively to an NMR tube. To such samples were then added increasing aliquots of either BzIm or pyr-D5 (as solutions of known concentration in CDCl3) and recording the chemical shift of the "meso" protons at 27^Q C. Control experiments were also carried out by adding known quantities of CF3 CO2 H, D2 O, and NH4 NO3 to similar stock solutions of 3.cndot.NO3.
Determination of Binding Constants. […] The chemical shift data obtained for the "meso" signals as a function of added BzIm were thus analyzed as such at both very low and very high conversion: Standard Scatchard (single reciprocal) plots^38 were constructed by plotting (δ-δo)/[BzIm] vs (δ-δo) according to equation 4 (which corresponds to eq. 5.13 of ref. 38), obtaining K as the absolute value of the slope and the term (δ.infin. -δo)K as the intercept.
(δ-δo)/[BzIm]=-K(δ-δo)+(δ.infi
Here δ is the observed chemical shift, δo is the initial chemical shift of the pure five or six coordinate starting complex (3A .cndot.NO3 or 4bA --NO3), δ.infin. the chemical shift calculated for the final mono- or bisligated complexes 4bA .cndot.NO3 or 5aA .cndot.NO3, K the equilibrium constant in question, and [BzIm] the concentration of free, uncomplexed benzimidazole. […] This was done in a straightforward manner according to the expressions given in equations 5 and 6, where [lig]o represents the concentration of the starting five coordinate ligand 3A .cndot.NO3.
(δ-δo)/δ.infin. -δo) at low
[BzIm].congruent.[BzIm]o -[lig]o at high [BzIm]o (6)
Using these corrected values for [BzIm], straight line Scatchard plots were obtained with R[…]0.99 and 0.98 respectively for the low and high [BzIm]o regimes giving values of K1 and K2 of 1.80×10^4 M^-1 and 12.9 M^-1 respectively.

[8] = Optical and photophysical properties of metallotexaphyrins (laser flash photolysis, fluorescence, singlet oxygen luminescence); type: physicochemical; settings: preliminary, photoexcitation at 350 nm
Description: Finally, several complexes containing paramagnetic metal ions (e.g. Mn^II, Sm^III, and Eu^III, structures 5c -7c) were investigated.
Comparison of the initial intensity with that obtained using tetrakis (4-hydroxyphenyl)porphyrin (THPP) as photosensitizer^3b under identical conditions allowed calculation of the quantum yields for production of singlet oxygen (^.phi. 1.cndot.2).

[9] = system: Herpes Simplex Virus Type 1 (HSV-1); assay: HSV-1 photoinactivation, viral plaque assay in Vero cells; type: cell-based; settings: for % Survival Viral Infectivity: light at max absorption, 10 J/cm^2
Description: The photosensitized inactivation of Herpes Simple Virus, Type 1 (HSV-1) was investigated in culture medium using various macrocycles of the present invention.
The macrocycle photosensitizing studies employed enveloped HSV-1 as the model for screening based on its ease of propagation and assessment of infectivity in cell culture. The screening procedure for photoinactivation of HSV-1 was similar to the methods previously described.^3 Essentially, selected macrocycles at different concentrations were added to a cell-free suspension of 10^6 PFU/ml of HSV-1. The viral suspensions were irradiated at the optimal absorption wavelength of the selected dye at different light-energy densities. Controls consisted of (1) nonirradiated virus, (2) virus irradiated in the absence of macrocycle, and (3) virus treated with selected concentrations of macrocycle and maintained in the dark. All samples were then assessed for viral infectivity by determining the number of PFU/ml in Vero cells.
Viral suspensions were serially diluted and subsequently absorbed onto Vero cell monolayers for 11/2 hours at 37^~ C. An overlay medium was added and the cells incubated at 37^~ C. for 3-4 days. The overlay medium was then removed, the monolayers fixed with methanol and tinctured with Giemsa, and individual plaques counted under a dissecting microscope. Uninfected cell cultures also were exposed to the macrocycle complexes to rule out direct cytotoxic effects.

[10] = system: peripheral mononucleated vascular cells (PMC); assay: Mitogenic assay ([3H]-Thy uptake after PHA stimulation) of peripheral mononucleated vascular cells in whole human plasma; type: cell-based; settings: 0.15 μM, 20 joules/cm^2 of 770 nm light, aerobic
Experimental: Cell kill was determined by [3H]-Thy uptake after phytohemagglutin (PHA) stimulation.
Cell kill was determined by [^3 H]-Thy uptake after PHA stimulation.
The inactivation of PMC's in the absence and presence of light after exposure to concentrations of complex 3A in whole human plasma ranging from 0.015 to 38 μM is shown in FIG. 29 and FIG. 30. Inactivation was judged by mitogenic assay. Toxicity onset with 3A (see FIG. 4B) and 1c (see FIG. 19) in the absence of light was between 0.15 and 1.5 μM (FIG. 29). […] Moderate increase in either photosensitizer concentration or light dosage is expected to result in essentially complete cellular inactivation.

SMILES: [Gd+3] [Gd(III)]
- toxicity for direct use in MRI imaging [1]: too toxic to be used directly

SMILES: CNC[C@H](O)[C@@H](O)[C@H](O)[C@H](O)CO.CNC[C@H](O)[C@@H](O)[C@H](O)[C@H](O)CO.O=C([O-])CN(CCN(CC(=O)[O-])CC(=O)O)CCN(CC(=O)[O-])CC(=O)O.[Gd+3] [[Gd(DTpA)(H2 O)]^2-, bis(N-methylglucamine) salt of Gd(III) diethylenetriaminepentaacetate]
- relaxivity [2]: 3.7 mM-^1 s-^1
- excretion ([3]; after administration): excreted intact through the kidneys within several days of administration
- localization ([3]; in vivo): localizes selectively in extracellular regions

SMILES: O=S(=O)([O-])c1ccc(-c2c3nc(c(-c4ccc(S(=O)(=O)[O-])cc4)c4ccc([n-]4)c(-c4ccc(S(=O)(=O)[O-])cc4)c4ccc([n-]4)c(-c4ccc(S(=O)(=O)[O-])cc4)c4nc2C=C4)C=C3)cc1.[Mn+3] [[Mn(III)TPPS]^3 -]
- tumor localizing properties [4]: good tumor localizing properties

SMILES: CCC1=C(C)c2cnc3ccccc3ncc3nc(cc4[n-]c(cc1n2)c(CC)c4CC)C(CC)=C3C.[Cd+2] [complex 3A]
- hydrolysis in aqueous acid [5]: leads to hydrolysis of the macrocyle
- demetallation by sulfide ([6]; aqueous Na2 S / excess sulfide anion): no demetallation takes place
- stability relative to cadmium porphyrins ([6]; neutral conditions / base binding controls): more stable than cadmium porphyrins
- Kd [7]: 55.6 µM
- triplet quantum yield [8]: roughly 80%
- triplet quenching in the presence of air [8]: quenched completely by formation of singlet oxygen
- triplet lifetime ([8]; absence of oxygen): 54 μs
- % Survival Viral Infectivity ([9]; 0.25 μM): 100%
- % Survival Viral Infectivity ([9]; 2.5 μM): 20%
- % Survival Viral Infectivity ([9]; 10 μM): 8%
- % Survival Viral Infectivity ([9]; 20 μM): 12%
- viral inactivation ([9]; 20 μM, viral plaque assay): ≥ 90%
- inhibition of cellular division [10]: significant inhibition of the cellular division of PMC's
